# Laboratory results from article PMC12305494, “Discovery of PXR Antagonist MI891 and PXR Degrader MI1013 and Their Roles in Hepatic Gene Regulation” (Journal of Medicinal Chemistry, 2025).
# Legend:
# AhR = AhR (Homo sapiens, UniProt P35869); assay: AhR agonist reporter assay; assay type: cell-based; conditions: 10 µM MI891
# Procedure: For the farnesoid X receptor (FXR) luciferase gene reporter assay, the full-length expression vector was paired with pFXRE-luc luciferase construct. The p1A1-luc construct was used in the aryl hydrocarbon receptor (AhR) assays with pRL-TK for normalization. Gal4-LXR-α/β, and Gal4-PPAR-γ constructs were used with the pGAL4 UAS-luc construct. For the VDR assay, expression vector pSG5-hVDR together with pVDRE-luc constructs was used. Firefly and Renilla luciferase activities were analyzed using a Dual reporter assay (Promega). For the nuclear receptor assays, prototype ligands were used at the following concentrations: Calcitriol for VDR (100 nM), GW3965 for LXRα and LXRβ (10 μM), 6-OCA for FXR (1 μM), fenofibrate for PPARα (10 μM), estradiol for ERα and β (10 μM), rosiglitazone for PPARγ (10 μM), 3-MC for AhR (5 μM), and TCPOBOP for mCAR (10 μM). Detailed descriptions and protocols are detailed in our recent publication. , […]
# hydrophobic interactions. (F) Superimposed diagram of PXR bound with agonist (SJPYT-328) and antagonists (MI891 and SJPYT-331) to differentiate the agonist and antagonist interactions with helix 12 (H12). The interaction of the agonist with PXR residue (L428) is circled. (G) Extended nuclear receptor selectivity profile. […]
# [1] = system: primary human hepatocytes; assay: RT-qPCR gene expression in primary human hepatocytes; assay type: cell-based; conditions: PHH, MI891 5 μM
# Procedure: Cryopreserved human hepatocytes from three donors were purchased from BioIVT (Westbury, New York, USA). The characteristics of the donors were as follows: donor 1, donor 2, donor 3 - person. PHHs were seeded in PHH medium supplemented with 10% fetal bovine serum at a density of 350,000 cells per well of rat tail collagen type I-coated 24-well plates (catalog number 354408, Corning, New York, USA). Cultivation medium was replaced with serum-free PHH medium 2 h later. […] Rifampicin, SPA70, and dimethyl sulfoxide (DMSO) were all purchased from Sigma-Aldrich (St. Louis, Missouri, USA, now part of Merck).
# RT-qPCR was utilized to investigate gene expression in HepaRG and PHH. Total RNA was extracted from these cells using the phenol–chloroform method. The concentration of the isolated RNA was then measured using a Nanodrop 1000 spectro-photometer (Thermo Fisher Scientific).
# Following RNA isolation, reverse transcription was performed to convert RNA into complementary DNA (cDNA). This step was carried out using the High-capacity cDNA reverse transcription kit (Cat. No. 4374966, ThermoFisher Scientific). The resulting cDNA served as the template for subsequent qPCR reactions.
# The qPCR reactions were conducted on the QuantStudio 6 Flex Real-Time PCR System (ThermoFisher Scientific, Waltham, Mas-sachusetts). For these reactions, TaqMan Universal master mix II (Cat. No. 4440047, ThermoFisher Scientific) and TaqMan assays (FAM) utilized in this study are detailed in the Supporting Information. To quantify gene expression, the cycle threshold (Ct) values of the target genes were normalized to the Ct values of reference genes HPRT1 or GAPDH (HepaRG) or TBP (PHH). The normalized values were then expressed as fold changes (2−ΔΔCt) relative to the DMSO control at the specified time points, with the control set as 1.
# AhR, sequence (P35869 11-848, species assumed): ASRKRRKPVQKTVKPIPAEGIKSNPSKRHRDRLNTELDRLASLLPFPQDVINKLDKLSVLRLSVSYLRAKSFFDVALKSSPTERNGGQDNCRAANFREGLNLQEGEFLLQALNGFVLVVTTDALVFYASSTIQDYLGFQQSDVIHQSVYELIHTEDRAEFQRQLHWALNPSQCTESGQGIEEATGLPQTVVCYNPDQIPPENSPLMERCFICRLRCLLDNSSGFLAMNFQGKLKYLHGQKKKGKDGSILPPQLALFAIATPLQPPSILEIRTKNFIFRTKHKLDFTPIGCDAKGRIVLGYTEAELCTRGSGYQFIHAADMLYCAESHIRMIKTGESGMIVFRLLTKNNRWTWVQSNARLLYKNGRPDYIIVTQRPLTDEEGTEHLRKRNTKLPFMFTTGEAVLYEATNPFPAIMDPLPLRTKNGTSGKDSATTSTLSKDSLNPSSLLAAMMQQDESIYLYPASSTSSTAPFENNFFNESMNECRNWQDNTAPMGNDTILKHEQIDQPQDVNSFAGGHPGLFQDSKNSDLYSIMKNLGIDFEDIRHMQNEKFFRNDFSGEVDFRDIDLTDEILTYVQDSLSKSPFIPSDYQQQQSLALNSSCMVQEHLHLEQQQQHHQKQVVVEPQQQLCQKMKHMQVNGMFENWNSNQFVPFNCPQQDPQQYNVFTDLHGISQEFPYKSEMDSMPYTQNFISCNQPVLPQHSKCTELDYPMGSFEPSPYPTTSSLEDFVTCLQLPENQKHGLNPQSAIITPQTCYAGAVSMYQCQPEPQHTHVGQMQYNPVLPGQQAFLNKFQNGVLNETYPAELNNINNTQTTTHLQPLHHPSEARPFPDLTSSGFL
structure (smiles),measurement,setting,value
"NC(=O)c1cc(Cn2cc(-c3c(-c4ccc(Cl)cc4)nc4c(F)cc(F)cn34)nn2)ccc1Cl [Compound 11, 2-Chloro-5-((4-(2-(4-chlorophenyl)-6,8-difluoroimidazo[1,2-a]pyridin-3-yl)-1H-1,2,3-triazol-1-yl)methyl)-benzamide]",agonistic effect on AhR,AhR,no agonistic effects
same,"CYP7A1, HMGCS2, PCK1 and MKI67 mRNA",[1]; in the presence and absence of rifampicin,significant downregulation
same,CYP2B6 mRNA,[1]; all donors,may slightly upregulate
same,CYP3A4 mRNA expression,"[1]; three donors, rifampicin 10 μM, 48 h",suppressed the expression of CYP3A4 mRNA and attenuated its induction by rifampicin
